Assay results: PubChem BioAssay AID330 (DTP/NCI, 2004)
Inconclusive results and toxic doses are left out.

Tested on: P388 leukemia ip, CD2F1 mice, survival T/C
Test: NCI In Vivo Anticancer Drug Screen. Data for tumor model P388 Leukemia (intraperitoneal) in CD2F1 (CDF1) mice
Conditions: endpoint: median survival time, higher = longer survival
Procedure, shortened: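 Mice carrying the transplanted tumor received test compound or vehicle. Survival was recorded in each group, and the value is the treated-group measurement divided by that of the vehicle-treated control group.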

[1] = dose: 150.0 mg/kg/injection, schedule: Q01DX009 (ip), vehicle: saline with Tween-80

Question: With `C[C@]12CC[C@@H]3c4ccc(OC(=O)Cc5ccc(N(CCCl)CCCl)cc5)cc4CC[C@H]3[C@@H]1CC[C@@H]2OC(=O)Cc1ccc(N(CCCl)CCCl)cc1` as the molecule, how does the T/C (dose: 100.0 mg/kg/injection, schedule: Q04DX003 (ip), vehicle: saline with Tween-80) read?
Answer: 100 % of control

Question: And the T/C (dose: 200.0 mg/kg/injection, schedule: Q04DX003 (ip), vehicle: saline with Tween-80)?
Answer: 120 % of control

Question: And the T/C (dose: 264.0 mg/kg/injection, schedule: Q04DX003 (ip), vehicle: saline with Tween-80)?
Answer: 109 % of control

Question: And the T/C (dose: 400.0 mg/kg/injection, schedule: Q04DX003 (ip), vehicle: saline with Tween-80)?
Answer: 113 % of control

Question: And the T/C (dose: 600.0 mg/kg/injection, schedule: Q04DX003 (ip), vehicle: saline with Tween-80)?
Answer: 154 % of control

Question: For `CC(=O)[C@@]1(O)CC[C@H]2[C@@H]3C[C@H](C)C4=CC(=O)CC[C@]4(C)[C@H]3[C@@H](O)C[C@@]21C`, which T/C (dose: 66.0 mg/kg/injection, schedule: Q01DX009 (ip), vehicle: saline with Tween-80) is on record?
Answer: 100 % of control

Question: What about the T/C (dose: 100.0 mg/kg/injection, schedule: Q01DX009 (ip), vehicle: saline with Tween-80) of the same molecule?
Answer: 100 % of control

Question: And the T/C [1]?
Answer: 104 % of control

Question: Which T/C (dose: 12.5 mg/kg/injection, schedule: Q01DX009 (ip), vehicle: water) does the source give for `COc1cc2ccc3cnccc3c2cc1OC` here?
Answer: 99 % of control

Question: What about the T/C (dose: 25.0 mg/kg/injection, schedule: Q01DX009 (ip), vehicle: water) of the same molecule?
Answer: 99 % of control

Question: And the T/C (dose: 50.0 mg/kg/injection, schedule: Q01DX009 (ip), vehicle: water)?
Answer: 103 % of control

Question: And the T/C (dose: 100.0 mg/kg/injection, schedule: Q01DX009 (ip), vehicle: water)?
Answer: 99 % of control

Question: What about the T/C (dose: 200.0 mg/kg/injection, schedule: Q01DX009 (ip), vehicle: water) of the same molecule?
Answer: 113 % of control

Question: `COC(C)(C)c1cc(C(C)(C)C)cc2c1SOC2(C)C` was tested. Which T/C (dose: 100.0 mg/kg/injection, schedule: Q04DX002 (ip), vehicle: Klucel (hydroxypropylcellulose) (HPC)) did it give?
Answer: 94 % of control

Question: And the T/C (dose: 200.0 mg/kg/injection, schedule: Q04DX002 (ip), vehicle: Klucel (hydroxypropylcellulose) (HPC))?
Answer: 100 % of control

Question: And the T/C (dose: 400.0 mg/kg/injection, schedule: Q04DX002 (ip), vehicle: Klucel (hydroxypropylcellulose) (HPC))?
Answer: 114 % of control

Question: What does the source list for `O=C(N/N=C/c1ccccc1[O-])c1ccccc1O.O=C(N/N=C/c1ccccc1[O-])c1ccccc1O.[Mn+2]`?
Answer: T/C (dose: 50.0 mg/kg/injection, schedule: Q01DX005 (ip), vehicle: Klucel (hydroxypropylcellulose) (HPC)): 100 % of control; T/C (dose: 100.0 mg/kg/injection, schedule: Q01DX005 (ip), vehicle: Klucel (hydroxypropylcellulose) (HPC)): 103 % of control; T/C (dose: 200.0 mg/kg/injection, schedule: Q01DX005 (ip), vehicle: Klucel (hydroxypropylcellulose) (HPC)): 103 % of control

Question: How did the T/C (dose: 60.0 mg/kg/injection, schedule: Q01DX005 (ip), vehicle: saline with Tween-80) turn out when `COC(=O)c1nc(N)nc(C(=O)OC)c1C(=O)C(C)C` was run?
Answer: 97 % of control

Question: What about the T/C (dose: 120.0 mg/kg/injection, schedule: Q01DX005 (ip), vehicle: saline with Tween-80) of the same molecule?
Answer: 98 % of control

Question: How did the T/C (dose: 6.25 mg/kg/injection, schedule: Q01DX005 (ip), vehicle: Klucel (hydroxypropylcellulose) (HPC)) turn out when `Cc1cc2c(-c3ccccc3)c3cc(C)c(N)cc3nc2cc1N` was run?
Answer: 101 % of control

Question: And the T/C (dose: 12.5 mg/kg/injection, schedule: Q01DX005 (ip), vehicle: Klucel (hydroxypropylcellulose) (HPC))?
Answer: 100 % of control

Question: And the T/C (dose: 25.0 mg/kg/injection, schedule: Q01DX005 (ip), vehicle: Klucel (hydroxypropylcellulose) (HPC))?
Answer: 99 % of control

Question: `COC(=O)[C@]12CCC(C)(C)C[C@H]1C1=CC[C@@H]3[C@@]4(C)C[C@H](O)[C@H](OC5OC(CO)C(O)C(O)C5O)C(CO)(CO)[C@@H]4CC[C@@]3(C)[C@]1(C)C[C@H]2O` (some centres undefined) was tested. Which T/C (dose: 2.5 mg/kg/injection, schedule: Q01DX005 (ip), vehicle: Klucel (hydroxypropylcellulose) (HPC)) did it give?
Answer: 94 % of control

Question: And the T/C (dose: 5.0 mg/kg/injection, schedule: Q01DX005 (ip), vehicle: Klucel (hydroxypropylcellulose) (HPC))?
Answer: 95 % of control

Question: What about the T/C (dose: 10.0 mg/kg/injection, schedule: Q01DX005 (ip), vehicle: Klucel (hydroxypropylcellulose) (HPC)) of the same molecule?
Answer: 100 % of control

Question: What about the T/C (dose: 20.0 mg/kg/injection, schedule: Q01DX005 (ip), vehicle: Klucel (hydroxypropylcellulose) (HPC)) of the same molecule?
Answer: 101 % of control

Question: Which results are given for `COc1cc2c(cc1OC)[C@]13C[C@@H](OC)C=CC14OC4CN3CCC2` (some centres undefined)?
Answer: T/C (dose: 20.0 mg/kg/injection, schedule: Q01DX009 (ip), vehicle: saline with Tween-80): 90 % of control; T/C (dose: 40.0 mg/kg/injection, schedule: Q01DX009 (ip), vehicle: saline with Tween-80): 95 % of control; T/C (dose: 80.0 mg/kg/injection, schedule: Q01DX009 (ip), vehicle: saline with Tween-80): 90 % of control; T/C [1]: 122 % of control

Question: `CN(C)CCC(=O)c1cccs1` was tested. Which T/C (dose: 50.0 mg/kg/injection, schedule: Q01DX009 (ip), vehicle: saline) did it give?
Answer: 107 % of control

Question: What about the T/C (dose: 100.0 mg/kg/injection, schedule: Q01DX009 (ip), vehicle: saline) of the same molecule?
Answer: 105 % of control
